Data reported in patent US20260232767A1, “INTERLEUKIN-23 RECEPTOR ANTAGONIST PEPTIDES FOR USE IN THE TREATMENT OF PSORIASIS” (Janssen Pharmaceutica NV, priority 2023, published 2026).

Tested on: IL-17A
Test: Serum IL-17A immunoassay
Assay type: in vivo, human
Conditions: all treatment groups relative to placebo
Protocol: To evaluate psoriasis relevant systemic biomarkers (Beta-defensin 2 (BD-2), IL-17A, IL-17F, and IL-22), protein concentrations were measured in serum using validated immunoassays. The IL-17A (Catalog #03-0159-00) and IL-17F (Catalog #03-0164-00) assays used are commercially available SMC™-based high sensitivity immunoassays produced by the EMD Millipore Corporation. The manufacturer's protocols were followed and analyzed on the Erenna® instrument platform except for the use of 11 μL Elution Buffer B. While the IL-22 assay is also based on the SMC™ platform and run on the Erenna instrument, the assay was developed internally as a coated plate-based assay. The development and optimization of the BD-2 assay was done on the Meso Scale Discovery on the electrochemiluminescence-based platform, a division of Meso Scale Diagnostics LLC (MSD). For all assays, concentration adjustments were made to values measuring below empirically defined LLOQ or empirically defined ULOQ values. Assay QC verified performance of generated standard curves (average concentration recovery & CV of technical replicates) and control samples (inter-assay plate agreement (CV)).
Serum levels of psoriasis disease biomarkers BD-2, IL-22, IL-17A, and IL-17F relative to baseline were analyzed in patients who received placebo or the compound of Formula (I) and compared to clinical response. […]

## CC(=O)NCCCC[C@@H]1NC(=O)[C@H](Cc2c[nH]c3c(C)cccc23)NC(=O)[C@H]([C@@H](C)O)NC(=O)[C@H](CC(N)=O)NC(=O)[C@@H](NC(C)=O)C(C)(C)SSC(C)(C)[C@@H](C(=O)N[C@@H](Cc2ccc(OCCN)cc2)C(=O)N[C@@H](Cc2ccc3ccccc3c2)C(=O)NC2(C(=O)N[C@@H](CCC(=O)O)C(=O)N[C@@H](CC(N)=O)C(=O)N[C@@H](Cc3cccnc3)C(=O)N(C)CC(N)=O)CCOCC2)NC1=O [IL-23 receptor antagonist peptide, Ac-[Pen]*-N-T-[W(7-Me)]-[Lys(Ac)]-[Pen]*-Phe[4-(2-aminoethoxy)]-[2-Nal]-[THP]-E-N-[3-Pal]-Sarc-NH2 (*[Pen]-[Pen]* formdisulfidebond)]
  IL-17A serum levels: Statistically significant reductions
